Data published in patent US8618098B2, “Inhibitors of bruton's tyrosine kinase” (Roche Palo Alto LLC, priority 2008, dated 2013).

Experiments:
[1] = target: Btk enzyme (His-tagged, full-length) (Homo sapiens (Human), UniProt Q06187); assay: Bruton's Tyrosine Kinase (Btk) Inhibition Assay; assay type: biochemical; conditions: 33P filtration capture assay, 100 μM ATP, 30 μM biotinylated peptide substrate
Excerpt: The assay is a capture of radioactive ^33P phosphorylated product through filtration. The interactions of Btk, biotinylated SH2 peptide substrate (Src homology), and ATP lead to phosphorylation of the peptide substrate. Biotinylated product is bound streptavidin sepharose beads. All bound, radiolabeled products are detected by scintillation counter.
Plates assayed are 96-well polypropylene (Greiner) and 96-well 1.2 μm hydrophilic PVDF filter plates (Millipore). Concentrations reported here are final assay concentrations: 10-100 μM compounds in DMSO (Burdick and Jackson), 5-10 nM Btk enzyme (His-tagged, full-length), 30 μM peptide substrate (Biotin-Aca-[…]-NH2), 100 μM ATP (Sigma), 8 mM imidazole (Sigma, pH 7.2), 8 mM glycerol-2-phosphate (Sigma), 200 μM EGTA (Roche Diagnostics), 1 mM MnCl2 (Sigma), 20 mM MgCl2 (Sigma), 0.1 mg/ml BSA (Sigma), 2 mM DTT (Sigma), 1 μCi ^33P ATP (Amersham), 20% streptavidin sepharose beads (Amersham), 50 mM EDTA (Gibco), 2 M NaCl (Gibco), 2 M NaCl w/1% phosphoric acid (Gibco), microscint-20 (Perkin Elmer).
IC50 determinations are calculated from 10 data points per compound utilizing data produced from a standard 96-well plate assay template. One control compound and seven unknown inhibitors were tested on each plate and each plate was run twice. Typically, compounds were diluted in half-log starting at 100 μM and ending at 3 nM. The control compound was staurosporine. Background was counted in the absence of peptide substrate. Total activity was determined in the presence of peptide substrate. The following protocol was used to determine Btk inhibition.
1) Sample preparation: The test compounds were diluted at half-log increments in assay buffer (imidazole, glycerol-2-phosphate, EGTA, MnCl2, MgCl2, BSA).
a.) rinse beads by centrifuging at 500 g
b.) reconstitute the beads with PBS and EDTA to produce a 20% bead slurry
3) Pre-incubate reaction mix without substrate (assay buffer, DTT, ATP, ^33P ATP) and mix with substrate (assay buffer, DTT, ATP, ^33P ATP, peptide substrate) 30° C. for 15 min.
4) To start assay, pre-incubate 10 μL Btk in enzyme buffer (imidazole, glycerol-2-phosphate, BSA) and 10 μL of test compounds for 10 min at RT.
5) Add 30 μL reaction mixture without or with substrate to Btk and compounds.
6) Incubate 50 μL total assay mix for 30 min at 30° C.
7) Transfer 40 μL of assay to 150 μL bead slurry in filter plate to stop reaction.
8) Wash filter plate after 30 min, with following steps
b. 3×250 μL NaCl containing 1% phosphoric acid
9) Dry plate for 1 h at 65° C. or overnight at RT
10) Add 50 μL microscint-20 and count ^33P cpm on scintillation counter. […]

Sequence of Btk enzyme (His-tagged, full-length) (Q06187 whole entry): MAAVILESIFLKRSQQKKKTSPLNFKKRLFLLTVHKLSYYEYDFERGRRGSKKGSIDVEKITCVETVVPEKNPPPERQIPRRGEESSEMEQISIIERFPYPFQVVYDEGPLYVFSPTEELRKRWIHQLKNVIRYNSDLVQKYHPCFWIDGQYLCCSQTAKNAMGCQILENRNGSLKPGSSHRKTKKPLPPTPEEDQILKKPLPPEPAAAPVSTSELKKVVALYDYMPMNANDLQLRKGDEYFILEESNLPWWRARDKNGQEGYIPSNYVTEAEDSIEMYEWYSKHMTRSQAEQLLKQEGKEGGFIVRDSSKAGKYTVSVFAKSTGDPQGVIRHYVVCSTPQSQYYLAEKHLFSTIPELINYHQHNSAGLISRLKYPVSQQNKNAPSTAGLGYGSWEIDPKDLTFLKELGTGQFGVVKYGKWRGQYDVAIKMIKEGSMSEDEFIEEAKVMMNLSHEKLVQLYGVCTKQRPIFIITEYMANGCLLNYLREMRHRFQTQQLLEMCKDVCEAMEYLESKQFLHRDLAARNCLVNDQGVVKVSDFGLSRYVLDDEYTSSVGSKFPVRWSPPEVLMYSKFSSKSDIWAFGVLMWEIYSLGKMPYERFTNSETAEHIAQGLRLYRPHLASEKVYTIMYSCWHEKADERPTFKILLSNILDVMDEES

SMILES | IC50 [1] [nM] | melting point [°C]
Cc1c(-c2cc(Nc3ccc(C(=O)N4CCOCC4)cn3)c(=O)n(C)c2)cccc1N1CNc2cc(N(C)C)ccc2C1=O [II-1, 7-Dimethylamino-3-(2-methyl-3-{1-methyl-5-[5-(morpholin-4-carbonyl)-pyridin-2-ylamino]-6-oxo-1,6-dihydro-pyridin-3-yl}-phenyl)-2,3-dihydro-1H-quinazolin-4-one] | 22 | 247.1 to 250.9
CNC(=O)Nc1cc(-c2cccc(N3CNc4cc(N(C)C)ccc4C3=O)c2C)cn(C)c1=O [II-2, 1-{5-[3-(7-Dimethylamino-4-oxo-1,4-dihydro-2H-quinazolin-3-yl)-2-methyl-phenyl]-1-methyl-2-oxo-1,2-dihydro-pyridin-3-yl}-3-methyl-urea] | – | 218.5 to 223.8
CNC(=O)Nc1cc(-c2cccc(-n3cnc4cc(C(C)(C)C)ccc4c3=O)c2C)cn(C)c1=O [Compound I-1, 1-{5-[3-(7-tert-Butyl-4-oxo-4H-quinazolin-3-yl)-2-methyl-phenyl]-1-methyl-2-oxo-1,2-dihydro-pyridin-3-yl}-3-methyl urea] | 112 | –

The remaining compounds from weak to strong by IC50 [1], led by results:

IC50 [1] [nM] | melting point [°C] | SMILES
124 | – | Cc1c(-c2cc(Nc3ccc(C(=O)N4CCOCC4)cn3)c(=O)n(C)c2)cccc1-n1ncc2cc(N(C)C)ccc2c1=O [III-1, 6-Dimethylamino-2-(2-methyl-3-{1-methyl-5-[5-(morpholine-4-carbonyl)-pyridin-2-ylamino]-6-oxo-1,6-dihydro-pyridin-3-yl}-phenyl)-2H-phthalazin-1-one]
18 | 196 to 197 | Cc1c(-c2cc(Nc3ccc(C(=O)N4CCOCC4)cn3)c(=O)n(C)c2)cccc1N1CNc2cc(C(C)(C)O)ccc2C1=O [II-3, 7-(1-Hydroxy-1-methyl-ethyl)-3-(2-methyl-3-{1-methyl-5-[5-(morpholine-4-carbonyl)-pyridin-2-ylamino]-6-oxo-1,6-dihydro-pyridin-3-yl}-phenyl)-2,3-dihydro-1H-quinazolin-4-one]
